For data set [1], the system named is NIH3T3 cells. The experiment in a line: Wound healing (scratch) assay under inflammatory stress (LPS). It is filed as cell-based. Particulars: 10 µM, 1 hour pre-incubation, then 10 µg/mℓ LPS, 0, 12, 24 hours, compared with the controls (LPS only), FIG. 3C, 3D, migration activity higher than in C2C12. The protocol:
(§1) In order to investigate the activity of the uldavioside A compound of the present invention, animal cells were incubated. Here, C212 cells, as myoblasts, and NIH3T3 cells and human diploid fibroblasts (HDFs), as fibroblasts, were used as the animal cells. Each type of cells were incubated in a 5% CO2 incubator containing Dulbecco's modified eagle's medium (DMEM) supplemented with 10% fetal bovine serum (FBS), 100 U/mℓ penicillin, and 100 µg/mℓ streptomycin at 37 °C.
(§2) In order to investigate a wound healing effect according to the treatment with the uldavioside A compound of the present invention, a wound healing assay was conducted.
(§3) The C2C12 and NIH3T3 cells incubated in Experimental Example 1 above were dispensed at 1×10^6 cells per well in a 12-well plate, and then stabilized through incubation for 24 hours. Thereafter, DMEM medium containing 0.5% FBS, 100 U/mℓ penicillin, and 100 µg/mℓ streptomycin was placed therein, and then the cells were incubated for 18 hours. After the 18-hour incubation, a scratch with about 0.9 mm was made in the center of each well with growing cells, and the cells were treated with a 10 µM uldavioside A compound, followed by pre-incubation for 1 hour. After 1 hour, the cells were treated with 10 µg/mℓ lipopolysaccharide (LPS) for inflammatory stress stimulation, and then migration of the cells was observed while the cells were incubated. […]

Data set [2] concerns C2C12 cells. The data set is described as above. As to conditions: 10 µM, 1 hour pre-incubation, then 10 µg/mℓ LPS, 0, 12, 24 hours, compared with the controls (LPS only), FIG. 3A, 3B. It counts as cell-based. Here is the method: as §1, §2, §3
The test system of data set [3] is C2C12 cells. Put plainly: Cytoprotective activity against glucose oxidative stress in high-glucose environment (MTT). Particulars: 50 mM D-glucose, 10 µM and 20 µM, 7 mU/mℓ glucose oxidase, 24 hours, FIG. 8B. It counts as cell-based. The protocol:
as §1
(§4) The cytoprotective activity of the uldavioside A compound of the present invention against glucose oxidative stress was investigated.
(§5) The C2C12 cells and HDF cells incubated in Experimental Example 1 were dispensed at 1×10^5 per well in a 48-well plate, respectively, and then incubated for 24 hours. Thereafter, each well was treated with 50 mM D-glucose to create a high-glucose environment. Then, the cells were treated with the uldavioside A compound at 10 µM and 20 µM, and after 1 hour, were treated with 7 mU/mℓ glucose oxidase, followed by incubation for 24 hours. Here, non-treated C2C12 or HDF cells were used as control 1, high-glucose state cells were used as control 2, and high-glucose state cells treated with glucose oxidase were used as control 3. […] Thereafter, the culture liquid was removed and the formed formazan precipitate was dissolved in 200 µℓ of DMSO, and then the absorbance was measured at 570 nm.

The test system of data set [4] is NIH3T3 cells. The experiment in a line: MTT assay, cytotoxicity. It is filed as cell-based. As to conditions: 1 µM and 10 µM, 24 hours. The protocol:
as §1
(§6) The cytotoxicity of the uldavioside A compound of the present invention was investigated using a 3-(4,5-dimethylthiazol-2-yl)-2,5-diphenyltetrazolium bromide (MTT) assay.
(§7) The C2C12 and NIH3T3 cells incubated in Experimental Example 1 above were dispensed at 1×10^5 cells per well in a 48-well plate and then incubated for 24 hours. Thereafter, DMEM medium containing 0.5% FBS, 100 U/mℓ penicillin, and 100 µg/mℓ streptomycin was placed therein, and then the cells were incubated for 18 hours. After the 18-hour incubation, the cells were treated with an uldavioside A compound at 1 µM and 10 µM and then incubated for 24 hours. Here, non-treated C2C12 and NIH3T3 cells were used as controls. After 24 hours, the cells were treated with an MTT solution at 100 µg/mℓ and incubated at 37 °C for 3 hours. Thereafter, the culture liquid was removed and the formed formazan precipitate was dissolved in 200 µℓ of dimethyl sulfoxide (DMSO), and then the absorbance was measured at 570 nm.

For data set [5], the system named is C2C12 cells. Put plainly: MTT assay, cytotoxicity. It counts as cell-based. Particulars: 1 µM and 10 µM, 24 hours. Here is the method: as §1, §6, §7
On the technique in general: Tetrazolium assays rely on reduction of a dye to a coloured formazan, in cell work by metabolically active cells.

Data set [6] has as its system diabetes-induced animal models. The experiment in a line: Diabetic ulcer healing, circular cut in streptozotocin-induced diabetic rats. As to conditions: dorsal circular cut 1 or 1.5 cm, ointment containing 0.025 wt%, topical, 8 days at intervals of 2 days, compared with the control, FIG. 9. It is filed as in vivo, Sprague-Dawley white rats. The protocol: In order to investigate a diabetic ulcer healing effect of the uldavioside A compound of the present invention, an animal experiment was conducted.
7-week-old Sprague-Dawley white rats with a body weight of about 300 g were intraperitoneally injected with 60 mg/kg streptozotocin to induce diabetes. After three days, only white rates with a blood glucose level of 300 mg/dℓ or higher were selected by collecting venous blood from the tail vein and measuring the glucose level using a blood glucose meter. The dorsal part of each of the selected white rats was shaved, and a circular cut with a diameter of 1 or 1.5 cm was made on the dorsal part 4-5 cm away from the ear using a puncher. After the circular cut was made, the white rats were randomly assigned and divided into a control treated without the uldavioside A compound of the present invention and a treatment group. For the treatment group, on the day of circular cut induction, the cut was treated with an ointment containing 0.025 wt% of the uldavioside A compound (Preparation Example 1-2 below), wrapped with sterilized Korean traditional paper, and fixed with a band and a bandage to maintain a wet environment. For the control, the cut was treated with an ointment not containing the uldavioside A compound.

The test system of the next data set is HDF cells. The experiment in a line: Cytoprotective activity against glucose oxidative stress in high-glucose environment (MTT). It is filed as cell-based, human. As to conditions: 50 mM D-glucose, 10 µM and 20 µM, 7 mU/mℓ glucose oxidase, 24 hours, FIG. 8A. Here is the method:
as §1, §4, §5

Data set [7] relates to hack-induced animal tissue. The experiment in a line: Histological change of hack wound tissue (H&E stain, Masson's trichrome stain). It is filed as in vivo, Sprague-Dawley white rats. The protocol:
In order to investigate a hack healing effect of the uldavioside A compound of the present invention, a histological change was observed using the hack-induced animal tissue.
The collected tissue was fixed by treatment with 10% formalin for 24 hours. The fixed tissue was embedded with paraffin, and cut into a 5 µm thickness to obtain tissue sections. The tissue sections were deparaffinized, hydrated, and washed, and then subjected to hematoxylin & eosin stain or Masson's trichrome stain.
Masson's trichrome stain is used to investigate collagen in the tissue, and collagenosis means that the wound in the dermis healed and the functions of the tissue were restored.

The test system of data set [8] is NIH3T3 cells. The experiment in a line: Wound healing (scratch) assay under glucose oxidative stress (glucose oxidase). It counts as cell-based. Particulars: 10 µM, 7 mU/mℓ glucose oxidase, compared with the controls, FIG. 4, migration activity higher than in C2C12. The protocol: as §1
(§8) The C2C12 and NIH3T3 cells incubated in Experimental Example 1 above were dispensed at 1×10^6 cells per well in a 12-well plate, and then stabilized through incubation for 24 hours. Thereafter, DMEM medium containing 0.5% FBS, 100 U/mℓ penicillin, and 100 µg/mℓ streptomycin was placed therein, and then the cells were incubated for 18 hours. After the 18-hour incubation, a scratch with about 0.9 mm was made in the center of each well with growing cells, and the cells were treated with a 10 µM uldavioside A compound, followed by pre-incubation for 1 hour. […] Here, at 0, 12, and 24 hours, the cells were fixed with a fixative (2% formaldehyde and 0.2% glutaraldehyde) and stained with 0.3% crystal violet, and then, the migration of the cells was checked using a microscope, and the reduction in area due to the migration of the cells into a wounded site. […]

The subject of data set [9] is C2C12 cells. Described as above. It is filed as cell-based. Particulars: 10 µM, 7 mU/mℓ glucose oxidase, compared with the controls, FIG. 4A, 4B. The protocol:
as §1, §8

Data set [10] relates to Sprague-Dawley white rats. Put plainly: Full-thickness hack wound healing, visual observation and wound size quantification. Particulars: rat hind leg, 3 cm-diameter full-thickness hack, ointment containing 0.025 wt%, topical; days 3, 7, 10, 14; compared with the control (ointment without compound), FIG. 5. It is filed as in vivo. Here is the method: In order to investigate a wound healing effect of the uldavioside A compound of the present invention, an animal experiment was conducted.
A hind leg of 7-8 week-old Sprague-Dawley white rats was shaved, and disinfected with 70% alcohol, and then a 3 cm-diameter circular full-thickness hack was made. After the full-thickness hack was made, the rats were randomly assigned and divided into a control treated without the uldavioside A compound of the present invention and a treatment group. For the treatment group, on the day of hack induction, the wound was treated with an ointment (Preparation Example 1-2 below) containing 0.025 wt% of the uldavioside A compound, wrapped with sterilized Korean traditional paper, and fixed with a band and a bandage to maintain a wet environment. For the control, the wound was treated with an ointment not containing the uldavioside A compound. Thereafter, on days 3, 7, 10, and 14 of wound induction, the wound site was observed, and the size of the wound site was quantified.

In another data set the test system is CD31. Put plainly: Immunohistochemistry of hack wound tissue sections. As to conditions: IHC, tissue sections on day 10, compared with the control, FIG. 7A. It is filed as in vivo, Sprague-Dawley white rats. The text has this: (§9) In order to investigate a hack healing effect of the uldavioside A compound of the present invention, the expression changes of proteins associated with angiogenesis and tissue regeneration were observed.
(§10) The tissue sections on day 10, which were fabricated in Experimental Example 4-2 above, were deparaffinized, hydrated, and washed, and were then subjected to immunohistochemistry (IHC) using antibodies of vascular endothelial growth factor (VEGF) and CD31, which are proteins associated with angiogenesis in tissue, and basic fibroblast growth factor (bFGF) and β-catenin, which are proteins associated with tissue regeneration.

The subject of a further data set is VEGF. Put plainly: Immunohistochemistry of hack wound tissue sections. As to conditions: IHC, tissue sections on day 10, compared with the control, FIG. 7A. It is filed as in vivo, Sprague-Dawley white rats.
Description: as §9, §10

The subject of a further data set is bFGF. The experiment in a line: Immunohistochemistry of hack wound tissue sections. It is filed as in vivo, Sprague-Dawley white rats. Particulars: IHC, tissue sections on day 10, compared with the control, FIG. 7B.
Description: as §9, §10

A further data set relates to β-catenin. Put plainly: Immunohistochemistry of hack wound tissue sections. It is filed as in vivo, Sprague-Dawley white rats. Particulars: IHC, tissue sections on day 10, compared with the control, FIG. 7B.
Description: as §9, §10

`OCC1(O)COC(Oc2cc(O)cc3c2CC(O)C(c2ccc(O)c(O)c2)O3)C1O` (stereo not drawn) [uldavioside A compound, uldavioside A]: the cell migration entry with NIH3T3 cells [1], in the data set with C2C12 cells [2], with NIH3T3 cells [8] and in the data set on C2C12 cells [9] was “increased” in each case. Besides, the “reduction in cell viability by glucose oxidative stress” value with C2C12 cells [3] and in the data set on HDF cells was “inhibited in a dose-dependent manner” throughout. Moreover, the cytotoxicity result in the data set on NIH3T3 cells [4] (MTT) and with C2C12 cells [5] (MTT) was “no cytotoxicity” each time. Also, the cell viability result with NIH3T3 cells [4] (compared with the controls (non-treated cells), FIG. 2B) is “increased”; in the data set with C2C12 cells [5] (compared with the controls (non-treated cells), FIG. 2A) it was “increased”. Moreover, the “wound site (wound size)” value in data set [6] was “started healing from day 4 and the wound size remarkably decreased”. Further, the “inflow of immune cells” value in [7] (H&E stain, day 3 after hack induction, ointment 0.025 wt%, FIG. 6(A)) was “reduced”. For the same compound, the “angiogenesis and granulation tissues formation” value in data set [7] (H&E stain, day 7 after hack induction, ointment 0.025 wt%, FIG. 6(A)) is “actively progressing”. In data set [7] (H&E stain, day 10 after hack induction, ointment 0.025 wt%, FIG. 6(A)), the proliferation of fibroblasts entry was “active proliferation of fibroblasts were observed”. The “amount of collagen stained” value in data set [7] (Masson's trichrome stain, day 7 after hack induction, compared with the control, FIG. 6(B)) is recorded as “remarkably increased”. For the same compound, the collagenosis entry in [7] (Masson's trichrome stain, day 17, FIG. 6(B)) was “collagenosis in most tissues”. Further, in data set [10], the “wound site (size of the wound site)” value was “started healing from day 7, and almost healed on day 14”. In addition, the “expression level of CD31” value in the data set with CD31 was “significantly increased”. Further, the “expression level of VEGF” value in the data set with VEGF is listed as “significantly increased”. For the same compound, the “expression level of bFGF” value in the data set on bFGF is on record as “significantly increased”. The “expression level of β-catenin” value in the data set on β-catenin is reported as “significantly increased”.

The values are drawn from EP3485891A1, “WOUND TREATMENT COMPOSITION CONTAINING ULDAVIOSIDE A COMPOUND” (Elcubio Co., Ltd., priority 2016, dated 2018).
